The values that follow come from PubChem BioAssay AID256 (DTP/NCI, 2004).

Each structure is given as a SMILES string. Values joined by “and” are separate entries in the source; they are usually repeats but may differ in a detail not shown here. Equal values may be shown once. Inconclusive results and toxic doses are left out.

The test has as its system CD2F1 mice, L1210 leukemia ip, survival T/C. As to the kind of experiment: NCI In Vivo Anticancer Drug Screen. Data for tumor model L1210 Leukemia (intraperitoneal) in CD2F1 (CDF1) mice. The note with it: endpoint: mean survival time, higher = longer survival. The method in brief:
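Read-out first: treated-group measurement over vehicle-control measurement, expressed as a ratio. Animals bore a transplanted tumor line and were dosed with compound or vehicle.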

Where [1] appears, read: dose: 100.0 mg/kg/injection, schedule: Q04DX003 (ip), vehicle: saline with Tween-80.
The mark [2] stands for this setting: dose: 200.0 mg/kg/injection, schedule: Q04DX003 (ip), vehicle: saline with Tween-80.
The mark [3] stands for this setting: dose: 400.0 mg/kg/injection, schedule: Q04DX003 (ip), vehicle: saline with Tween-80.
The mark [4] stands for this setting: dose: 25.0 mg/kg/injection, schedule: Q01DX009 (ip), vehicle: saline with Tween-80.
Setting [5] is: dose: 100.0 mg/kg/injection, schedule: Q01DX009 (ip), vehicle: saline with Tween-80.
The mark [6] stands for this setting: dose: 6.25 mg/kg/injection, schedule: Q01DX009 (ip), vehicle: saline with Tween-80.

With `C=CCOc1cccc[n+]1CC(=O)CC(O)(C(F)(F)F)C(F)(F)F`, the T/C runs as follows: under setting [1], 95 % of control; under setting [2], 92 % of control; under setting [3], 97 % of control.
For the compound `CC(=O)Nc1nc(C)c(CC/C=C/c2ccc([N+](=O)[O-])cc2)c(Cl)n1`, the T/C is 94 % of control (dose: 100.0 mg/kg/injection, schedule: Q01DX001 (ip), vehicle: saline with Tween-80); 89 % of control (dose: 200.0 mg/kg/injection, schedule: Q01DX001 (ip), vehicle: saline with Tween-80); 89 % of control (dose: 400.0 mg/kg/injection, schedule: Q01DX001 (ip), vehicle: saline with Tween-80).
For `Nc1n[nH]c(N)n1`, the T/C runs as follows: (dose: 3.2 mg/kg/injection, schedule: Q## X008 (iv), vehicle: water) 100 % of control; (dose: 6.3 mg/kg/injection, schedule: Q## X008 (iv), vehicle: water) 103 % of control; (dose: 12.5 mg/kg/injection, schedule: Q## X004 (iv), vehicle: water) 100 % of control; (dose: 12.5 mg/kg/injection, schedule: Q## X008 (iv), vehicle: water) 102 % of control; (dose: 25.0 mg/kg/injection, schedule: Q## X004 (iv), vehicle: water) 104 % of control; (dose: 25.0 mg/kg/injection, schedule: Q## X008 (iv), vehicle: water) 101 % of control. The T/C is, setting by setting: (dose: 50.0 mg/kg/injection, schedule: Q03HX024 (ip), vehicle: saline) 103 % of control; (dose: 50.0 mg/kg/injection, schedule: Q## X004 (iv), vehicle: water) 103 % of control; (dose: 50.0 mg/kg/injection, schedule: Q## X008 (iv), vehicle: water) 103 % of control; (dose: 50.0 mg/kg/injection, schedule: Q## X068 (ip), vehicle: water) 110 % of control; (dose: 50.0 mg/kg/injection, schedule: Q#A X002 (iv), vehicle: water) 106 % of control; (dose: 100.0 mg/kg/injection, schedule: Q01DX007 (ip), vehicle: saline) 113 % of control. Further, the T/C is 104 % of control (dose: 100.0 mg/kg/injection, schedule: Q01DX009 (ip), vehicle: saline); 105 % of control (dose: 100.0 mg/kg/injection, schedule: Q03DX003 (ip), vehicle: saline); 117 % of control and 103 % of control and 112 % of control (dose: 100.0 mg/kg/injection, schedule: Q03HX024 (ip), vehicle: saline); 105 % of control (dose: 100.0 mg/kg/injection, schedule: Q04DX003 (ip), vehicle: saline); 105 % of control (dose: 100.0 mg/kg/injection, schedule: Q## X004 (iv), vehicle: water); 102 % of control (dose: 100.0 mg/kg/injection, schedule: Q## X008 (iv), vehicle: water). The T/C (dose: 100.0 mg/kg/injection, schedule: Q#A X002 (iv), vehicle: water) was 96 % of control; the T/C (dose: 100.0 mg/kg/injection, schedule: Q#A X034 (ip), vehicle: water) was 118 % of control; the T/C (dose: 200.0 mg/kg/injection, schedule: Q01DX017 (ip), vehicle: water) was 113 % of control; the T/C (dose: 200.0 mg/kg/injection, schedule: Q03DX003 (ip), vehicle: saline) is 105 % of control; the T/C (dose: 200.0 mg/kg/injection, schedule: Q04DX003 (ip), vehicle: saline) was 106 % of control; the T/C (dose: 200.0 mg/kg/injection, schedule: Q## X004 (iv), vehicle: water) is 105 % of control. In addition, the T/C is 190 % of control (dose: 200.0 mg/kg/injection, schedule: Q## X068 (ip), vehicle: water); 103 % of control (dose: 200.0 mg/kg/injection, schedule: Q#A X002 (iv), vehicle: water); 106 % of control (dose: 200.0 mg/kg/injection, schedule: Q#A X010 (ip), vehicle: water); 104 % of control (dose: 400.0 mg/kg/injection, schedule: Q01DX001 (iv), vehicle: water); 113 % of control (dose: 400.0 mg/kg/injection, schedule: Q03DX003 (ip), vehicle: saline); 203 % of control and 221 % of control and 237 % of control (dose: 400.0 mg/kg/injection, schedule: Q03HX024 (ip), vehicle: saline). Further, the T/C is 106 % of control (dose: 400.0 mg/kg/injection, schedule: Q04DX003 (ip), vehicle: saline); 116 % of control (dose: 400.0 mg/kg/injection, schedule: Q## X068 (ip), vehicle: water); 110 % of control (dose: 400.0 mg/kg/injection, schedule: Q#A X002 (iv), vehicle: water); 113 % of control (dose: 400.0 mg/kg/injection, schedule: Q#A X010 (ip), vehicle: water); 203 % of control (dose: 400.0 mg/kg/injection, schedule: Q#A X018 (ip), vehicle: water); 208 % of control (dose: 400.0 mg/kg/injection, schedule: Q#A X034 (ip), vehicle: water). In addition, the T/C runs as follows: (dose: 512.0 mg/kg/injection, schedule: Q12HX018 (ip), vehicle: saline) 104 % of control; (dose: 800.0 mg/kg/injection, schedule: Q01DX001 (iv), vehicle: water) 103 % of control; (dose: 800.0 mg/kg/injection, schedule: Q01DX017 (ip), vehicle: water) 150 % of control; (dose: 800.0 mg/kg/injection, schedule: Q#A X002 (iv), vehicle: water) 110 % of control; (dose: 800.0 mg/kg/injection, schedule: Q#A X010 (ip), vehicle: water) 122 % of control; (dose: 800.0 mg/kg/injection, schedule: Q#A X018 (ip), vehicle: water) 181 % of control. Further, the T/C was 97 % of control (dose: 800.0 mg/kg/injection, schedule: Q#A X034 (ip), vehicle: water); 120 % of control (dose: 1024.0 mg/kg/injection, schedule: Q12HX018 (ip), vehicle: saline); 105 % of control (dose: 1600.0 mg/kg/injection, schedule: Q01DX001 (iv), vehicle: water); 165 % of control (dose: 1600.0 mg/kg/injection, schedule: Q01DX017 (ip), vehicle: water).
Consider `N#Cc1[nH]nc2ncnc(NC(=O)C(F)(F)F)c12`, for which the T/C was 111 % of control (dose: 6.25 mg/kg/injection, schedule: Q01DX005 (ip), vehicle: water); 96 % of control (dose: 12.5 mg/kg/injection, schedule: Q01DX005 (ip), vehicle: water); 107 % of control (dose: 25.0 mg/kg/injection, schedule: Q01DX005 (ip), vehicle: water); 96 % of control (dose: 50.0 mg/kg/injection, schedule: Q01DX005 (ip), vehicle: water).
Consider `O=C(NCCCl)Nc1cc(Cl)cc(Cl)c1`, for which the T/C was 97 % of control under setting [4]; 100 % of control (dose: 50.0 mg/kg/injection, schedule: Q01DX009 (ip), vehicle: saline with Tween-80); 88 % of control and 96 % of control under setting [5].
Regarding `O/N=C/C=N/O.O/N=C/C=N/O.[Pd]`, the T/C under setting [6] is 100 % of control.
With `O=S(=O)(F)c1ccc(N=C=S)cc1`, the T/C is 107 % of control (dose: 12.5 mg/kg/injection, schedule: Q01DX009 (ip), vehicle: saline with Tween-80); 97 % of control under setting [4]; 94 % of control under setting [1]; 97 % of control under setting [2]; 100 % of control under setting [3].
For the compound `O=C1NC2(c3ccccc3)NC(=O)NC2(c2ccccc2)N1` (stereo not drawn), the T/C under setting [5] was 98 % of control; the T/C under setting [1] is 101 % of control; the T/C (dose: 200.0 mg/kg/injection, schedule: Q01DX009 (ip), vehicle: saline with Tween-80) is 98 % of control; the T/C under setting [2] was 97 % of control; the T/C (dose: 400.0 mg/kg/injection, schedule: Q01DX009 (ip), vehicle: saline with Tween-80) is 104 % of control; the T/C under setting [3] was 95 % of control.
`CCN1/C(=C/C(C)=C/c2sc3ccccc3[n+]2CC)Sc2ccccc21`: the T/C was 96 % of control (dose: 5.0 mg/kg/injection, schedule: Q01DX001 (ip), vehicle: other); 104 % of control (dose: 200.0 micrograms/kg/injection, schedule: Q04DX003 (ip), vehicle: Klucel (hydroxypropylcellulose) (HPC)); 104 % of control (dose: 400.0 micrograms/kg/injection, schedule: Q04DX003 (ip), vehicle: Klucel (hydroxypropylcellulose) (HPC)).
Turning to `O=C[N]([Hg][Cl])c1ccccc1`, the T/C under setting [6] is 86 % of control.
With `CCc1cc(C(C)(C)C)c(O)c(C(C)(C)C)c1`, the T/C is, setting by setting: (dose: 25.0 mg/kg/injection, schedule: Q01DX009 (ip), vehicle: Klucel (hydroxypropylcellulose) (HPC)) 102 % of control; (dose: 50.0 mg/kg/injection, schedule: Q01DX009 (ip), vehicle: Klucel (hydroxypropylcellulose) (HPC)) 102 % of control; (dose: 100.0 mg/kg/injection, schedule: Q01DX009 (ip), vehicle: Klucel (hydroxypropylcellulose) (HPC)) 98 % of control.
